Series [1] can be described thus: Solubility of DBAB achieved by solvents. Particulars: organic solvent or mixture. It is filed as physicochemical.
A short description of series [2]: Amount of solubilizers needed to dissolve DBAB in water (synergy of cyclodextrin with other solubilizers). The class given is physicochemical. Particulars: for solubility of the composition: 0.1% by weight DBAB. An excerpt:
The synergistic effect of cyclodextrin as a solubilizer of the present invention in combination with other solubilizers (a second solubilizer and a third solubilizer) was investigated.

In series [3] the test system is MITF. Particulars: through the cAMP-PKA-CREB signal pathway; background statement; cited from earlier work.
Series [4] relates to melanin synthesis. Conditions: background statement; verified through cell and artificial skin tests; cited from earlier work.
Series [5] is described as follows: pH and solubility of HP-β-CD/DBAB compositions. Particulars: HP-β-CD and DBAB mixed at a weight ratio of 1:1. It is filed as physicochemical. The source says: In addition to investigation of the solubility improvement with varying pH, the solubility of the composition was investigated with varying the pH of the composition and the weight ratio of HP-β-CD and DBAB as shown in Table 3 below.

Series [6] can be described thus: Solubility of DBAB at various weight ratios of HP-β-CD and γ-CD, total CD 0.5%. Conditions: 0.2% by weight of each of HP-β-CD and γ-CD, test method of Table 5.
Description: In this case, 10% by weight of PEG.PPG-17.6 copolymer, 0.1% by weight of DBAB, 39.4% by weight of propanediol, 50% by weight of water and 0.5% by weight of the total CD were used.
In addition, the test method of Table 5 was carried out by using 0.2% by weight of each of HP-β-CD and γ-CD with an addition of 0.1% by weight of HP-α-CD, HP-γ-CD, α-CD or β-CD.
Series [7] is described as follows: Solubility of DBAB for each type of cyclodextrin and their 1:1 combinations (amount of CD required). The class given is physicochemical. Particulars: single cyclodextrin or 1:1 weight ratio combination. How it is done: In order to investigate the solubility of one part by weight of DBAB for each type of cyclodextrin and the synergistic effect between cyclodextrins, the solubility of each of α-CD, γ-CD, HP-α-CD, HP-β-CD and HP-γ-CD and the solubility of their 1:1 weight ratio combinations was determined, as shown in Table 4 below.

Converted amounts (≈) assume the structure as drawn. Like-named read-outs stand apart in the source and are kept apart here.

The term solubility denotes how much of the substance goes into solution per volume.

Regarding `COc1cc(OC)c(C23CC4CC(CC(C4)C2)C3)cc1C(=O)NCc1ccc(O)cc1O` [DBAB, 5-adamantan-1-yl-N-(2,4-dihydroxybenzyl)-2,4-dimethoxy-benzoic acid amide], the solubility in series [1] (PEG.PPG-17.6 copolymer, read-out: solubility of DBAB achieved by PEG.PPG-17.6 copolymer) stood at 81.3 mg/mL (≈ 186 mM); in series [1] (propanediol, read-out: solubility of DBAB achieved by propanediol), 5.92 mg/mL (≈ 13.5 mM). Besides, the “solubility of the composition” value in series [2] (30% by weight PEG.PPG-17.6 copolymer, 0.6% by weight HP-β-CD) is on record as “transparently dissolved”; in series [2] (50% by weight PEG.PPG-17.6 copolymer, balance water), “transparently dissolved”. Besides, in series [3], the “expression of MITF” value is recorded as “reduces the expression of MITF”. Moreover, the melanin synthesis entry in series [4] is “inhibiting melanin synthesis”. In series [5], the “pH at which the composition has improved solubility” value is given as ≥ 12.72.
As to `OC[C@H]1O[C@@H]2O[C@H]3[C@H](O)[C@@H](O)[C@@H](O[C@H]4[C@H](O)[C@@H](O)[C@@H](O[C@H]5[C@H](O)[C@@H](O)[C@@H](O[C@H]6[C@H](O)[C@@H](O)[C@@H](O[C@H]7[C@H](O)[C@@H](O)[C@@H](O[C@H]1[C@H](O)[C@H]2O)O[C@@H]7CO)O[C@@H]6CO)O[C@@H]5CO)O[C@@H]4CO)O[C@@H]3CO` [α, α-cyclodextrin], the “effect on solubility of DBAB of adding 0.1% by weight of a further cyclodextrin” value in series [6] is “did not improve the solubility”. Besides, the “amount of CD required (weight ratio CD:DBAB, x:1) to transparently dissolve one part by weight of DBAB” value in series [7] was >20.
The like results for `OC[C@H]1O[C@@H]2O[C@H]3[C@H](O)[C@@H](O)[C@@H](O[C@H]4[C@H](O)[C@@H](O)[C@@H](O[C@H]5[C@H](O)[C@@H](O)[C@@H](O[C@H]6[C@H](O)[C@@H](O)[C@@H](O[C@H]7[C@H](O)[C@@H](O)[C@@H](O[C@H]8[C@H](O)[C@@H](O)[C@@H](O[C@H]1[C@H](O)[C@H]2O)O[C@@H]8CO)O[C@@H]7CO)O[C@@H]6CO)O[C@@H]5CO)O[C@@H]4CO)O[C@@H]3CO` [β, β-cyclodextrin] were, in that order, “did not improve the solubility” and >20.
With hydroxypropyl-α-cyclodextrin [HPα], in series [6], the “effect on solubility of DBAB of adding 0.1% by weight of a further cyclodextrin” value is “did not improve the solubility”. Besides, the “amount of CD required (weight ratio CD:DBAB, x:1) to transparently dissolve one part by weight of DBAB” value in series [7] is listed as >20.
hydroxypropyl-β-cyclodextrin [HP-β-CD]: the “amount of CD required (weight ratio CD:DBAB, x:1) to transparently dissolve one part by weight of DBAB” value in series [7] was found to be 20. Besides, the “PEG.PPG-17.6 copolymer replaced by 0.6% of HP-β-CD” value in series [2] (composition comprising DBAB) is recorded as 20%. Besides, the “PEG.PPG-17.6 copolymer replaced by 0.1% by weight of HP-β-CD” value in series [2] (composition with 0.1% by weight of DBAB) came out at 20 % by weight.
On to hydroxypropyl-γ-cyclodextrin [HPγ], for which the “amount of CD required (weight ratio CD:DBAB, x:1) to transparently dissolve one part by weight of DBAB” value in series [7] was >20.

The values are drawn from patent US11654094B2, “Composition comprising benzoic acid amide compound and cyclodextrin solubilizing agent” (AMOREPACIFIC CORPORATION, priority 2017, dated 2023).
